Values of other authors as cited in patent US20100029551A1, “Treatment Of Inflammatory Lung Conditions With Aerosolized Macrolide Antibiotics” (priority 2008, published 2010).

## CO[C@]1(C)C[C@@H](C)C(=O)[C@H](C)[C@@H](O)[C@](C)(O)[C@@H](C(C)O)OC(=O)[C@H](C)[C@@H](O[C@H]2C[C@@](C)(OC)[C@@H](O)[C@H](C)O2)[C@H](C)[C@H]1O[C@@H]1O[C@H](C)C[C@H](N(C)C)[C@H]1O (some centres unmarked) [14-hydroxy clarithromycin]
first-pass metabolite of clarithromycin
  Activity relative to clarithromycin: approximately twice as active as clarithromycin
plasma
  Plasma half-life relative to clarithromycin: significantly longer plasma half-life than clarithromycin
